According to US20210199657A1, “I[…] AND USE THEREOF” (priority 2016, published 2021):

Columns and labels:
[1] = test system: antibodies contained in pools of serums from patients suffering from active tuberculosis; experiment: ELISA screening of peptides on pools of serums from patients with active TB (ratio R); settings: for ratio R: for 3 of the 4 serums tested
Method: In order to determine which peptides are of interest, a ratio R is calculated, the ratio R being the normalized measurement value of the immune complex formation, relative to the respective background noises of the serums and components used to detect the immune complexes, to, or divided by, the normalized measurement value obtained from the sample derived from a healthy individual relative to the respective background noises of the serums and components used to detect the immune complexes.
In order to determine the immunogenicity of the peptides, they are tested using the following ELISA test:
The peptides are fixed on a Maxisorp (high binding) plate: Incubation overnight at 4° C., concentration of the protein in μg/ml from 20 to 50.
The wells are rinsed with 300 μL of phosphate buffered saline (PBS).
The “wells” are blocked for 2 hours at ambient temperature (19° C.-25° C.) with 200 μL of bovine serum albumin (BSA) 2% and 0.01% of Tween 20.
The wells are rinsed with 200 μL of PBS.
One deposits 100 μL of serums from patients suffering from active TA diluted at 1/100th in blocking solution and incubates for one hour at 37° C.
Perform 3 washes (300 μL) PBS-Tween 20 (0.05%).
One adds 100 μL of antibodies conjugated with peroxidase, diluted at 1/20,000 with blocking solution and incubates for 1 h at 37° C.
One adds 100 μL of 3,3′,5,5′-tetramethylbenzidine (TMB) and incubates for 20 minutes in the dark.
One deposits 50 μL of sulfuric acid at 1N.
A spectrophotometer is used at 450 nm to read the quantity of TMB converted by the peroxidase (indicative of the formation of an immune complex between the peptides and the antibodies contained in the serum).

[2] = test system: negative pool (serum of individuals not suffering from tuberculosis); experiment: ELISA of peptides on negative pool of samples; type: binding, human; settings: 450 nm

With “DADARVAVPRRDDL (DADARVAVPGRRDDL; derived from LipW) [Peptide W7]” the “ratio R” value [1] was “greater than 1.5”.
In the case of “TAACPDAEWFARGR (TAACPDAEVVFARGR; derived from Rv2301) [Peptide Z1]”, the “ratio R” value [1] is reported as “greater than 1.5”.
“CNNGDPICSDGNRWR (derived from Rv3452) [Peptide D7, Rv3452 191-205aa]” was tested, and the “ratio R” value [1] was “greater than 1.5”, the ratio ([1]; for both pools of patients) was greater than 1.5 and the “Ratio Positive pool 1” value ([1]; positive pool 1) was 1.7. The “Ratio Positive pool 2” value ([1]; positive pool 2) was 1.7 and the “OD Negative pool” value [2] was 0.303.
